The test system of data set [1] is Pseudomonas aeruginosa. In words: Inhibition of swimming motility of Pseudomonas aeruginosa PAO1 incubated overnight. Type of data set: functional, organism-based. Conditions: dose <= 10.0 µM.
For data set [2], the system named is Pseudomonas aeruginosa. In words: Inhibition of beta-galactosidase in Pseudomonas aeruginosa PAO1 harboring mini-ctx-rhlA-lacZ at 10 uM incubated for 6 hrs by ONPG test relative to control.
Data set [3] relates to Pseudomonas aeruginosa. In words: Antibiofilm activity against Pseudomonas aeruginosa PAO1 harboring wspF mutant assessed as inhibition rate at 1.25 uM incubated for 24 hrs by absorbance based assay relative to control. The format is functional.
In data set [4] the test system is Pseudomonas aeruginosa. In words: Synergistic inhibition of bacterial virulence of hyper-biofilm phenotype Pseudomonas aeruginosa PAO1 harboring wspF mutant upto 10 uM incubated for 36 hrs in presence of tetracycline. Type of data set: functional, organism-based.
The test system of data set [5] is Pseudomonas aeruginosa. In words: Inhibition of swarming motility of Pseudomonas aeruginosa PAO1 incubated overnight. Conditions: dose <= 10.0 µM. The format is functional, organism-based.
Data set [6] in a line: Toxicity in Caenorhabditis elegans infected with Pseudomonas aeruginosa PAO1 assessed as nematode survival at 10 uM incubated for 48 hrs in presence of tetracycline.
Data set [7] relates to Pseudomonas aeruginosa. The data set is described as follows: Synergistic antibacterial activity against Pseudomonas aeruginosa PAO1 assessed as bacterial growth inhibition at 20 uM incubated for 24 hrs in presence of tetracycline by CFU counting method. Type of data set: functional, organism-based.
Data set [8] concerns Pseudomonas aeruginosa. The data set is described as follows: Antibacterial activity against Pseudomonas aeruginosa PAO1 incubated for 24 hrs by absorbance based assay. The format is functional.
The subject of data set [9] is Pseudomonas aeruginosa. The data set is described as follows: Downregulation of pqsR mRNA level in Pseudomonas aeruginosa PAO1 at 10 uM by RT-qPCR analysis. The format is functional, organism-based. On the technique in general: Real-time PCR tracks product formation cycle by cycle.
Data set [10] is described as follows: Toxicity in Caenorhabditis elegans infected with hyper-biofilm phenotype Pseudomonas aeruginosa PAO1 harboring wspF mutant assessed as nematode death at 10 uM incubated for 48 hrs in presence of TOB.
In data set [11] the test system is Pseudomonas aeruginosa. The data set is described as follows: Antivirulence activity against Pseudomonas aeruginosa PAO1 assessed as reduction in rhamnolipid level incubated for 24 hrs by orcinol based analysis. The format is functional, organism-based. Particulars: dose <= 10.0 µM.
The test system of data set [12] is Pseudomonas aeruginosa. The data set is described as follows: Antibiofilm activity against Pseudomonas aeruginosa PAO1 harboring wspF mutant assessed as inhibition rate at 10 uM incubated for 24 hrs by absorbance based assay relative to control. The format is functional.
In data set [13] the test system is Pseudomonas aeruginosa. The data set is described as follows: Inhibition of beta-galactosidase in Pseudomonas aeruginosa PAO1 harboring mini-ctx-lasB-lacZ at 10 uM incubated for 6 hrs by ONPG test relative to control.
Data set [14] deals with Pseudomonas aeruginosa. The data set is described as follows: Inhibition of twitching motility of Pseudomonas aeruginosa PAO1 incubated overnight by crystal voilet staining based analysis. The format is functional, organism-based. Particulars: dose <= 10.0 µM.
Data set [15] has as its system DNA. The data set is described as follows: Binding affinity to pBR322 DNA (unknown origin) assessed as DNA migration at 50 uM preincubated for 10 mins followed by Topo I addition measured after 1 hr by TO dye based PAGE analysis. Type of data set: nucleic-acid assay. Particulars: time 70.0 min.
Data set [16] can be described thus: Toxicity in Caenorhabditis elegans assessed as nematode survival upto 100 uM incubated for 96 hrs.
Data set [17] deals with Pseudomonas aeruginosa. In words: Synergistic inhibition of bacterial virulence of hyper-biofilm phenotype Pseudomonas aeruginosa PAO1 harboring wspF mutant upto 10 uM incubated for 36 hrs in presence of TOB. Type of data set: functional, organism-based.
The test system of data set [18] is Pseudomonas aeruginosa. In words: Antivirulence activity against Pseudomonas aeruginosa PAO1 assessed as reduction in elastase level at 10 uM incubated for 24 hrs by elastin-Congo red staining based analysis relative to control. Type of data set: functional. Also noted: scale not given: the % may be the effect or the level left.
Data set [19] concerns Pseudomonas aeruginosa. In words: Inhibition of beta-galactosidase in Pseudomonas aeruginosa PAO1 harboring mini-ctx-pqsA-lacZ at 10 uM incubated for 6 hrs by ONPG test relative to control.
Data set [20] has as its system Pseudomonas aeruginosa. The data set is described as follows: Antibiofilm activity against Pseudomonas aeruginosa PAO1 harboring wspF mutant incubated for 24 hrs by absorbance based assay. Type of data set: functional, organism-based.
Data set [21] deals with Pseudomonas aeruginosa. In words: Synergistic inhibition of bacterial virulence of Pseudomonas aeruginosa PAO1 infected in Caenorhabditis elegans upto 10 uM incubated for 36 hrs in presence of tetracycline. The format is functional, organism-based.
The subject of data set [22] is Vero. In words: Cytotoxicity against African green monkey Vero cells at 12.5 uM incubated for 24 hrs by MTT assay. Type of data set: toxicity, cell-based. Particulars: chlorocebus sabaeus. (Tetrazolium assays rely on reduction of a dye to a coloured formazan, in cell work by metabolically active cells.)
The subject of data set [23] is Pseudomonas aeruginosa. The data set is described as follows: Inhibition of beta-galactosidase in Pseudomonas aeruginosa PAO1 harboring mini-ctx-pqsA-lacZ incubated for 6 hrs by ONPG test. Particulars: dose <= 10.0 µM.
Data set [24] relates to Pseudomonas aeruginosa. The data set is described as follows: Antivirulence activity against Pseudomonas aeruginosa PAO1 assessed as reduction in rhamnolipid level at 10 uM incubated for 24 hrs by orcinol based analysis. Type of data set: functional, organism-based.
Data set [25] relates to Pseudomonas aeruginosa. The data set is described as follows: Synergistic inhibition of bacterial virulence of Pseudomonas aeruginosa PAO1 infected in Caenorhabditis elegans upto 10 uM incubated for 36 hrs in presence of TOB. The format is functional, organism-based.
Data set [26] is described as follows: Toxicity in Caenorhabditis elegans infected with Pseudomonas aeruginosa PAO1 assessed as reduction in nematode mortality rate at 10 uM incubated for 48 hrs in presence of TOB. Also noted: scale not given: the % may be the effect or the level left.
Data set [27] has as its system Pseudomonas aeruginosa. In words: Downregulation of rhlA mRNA level in Pseudomonas aeruginosa PAO1 at 10 uM by RT-qPCR analysis. The format is functional, organism-based.
The nature of data set [28]: Toxicity in Caenorhabditis elegans infected with Pseudomonas aeruginosa PAO1 assessed as nematode survival at 10 uM incubated for 48 hrs.
The subject of data set [29] is Pseudomonas aeruginosa. In words: Downregulation of lasR mRNA level in Pseudomonas aeruginosa PAO1 at 10 uM by RT-qPCR analysis. The format is functional, organism-based.
The test system of data set [30] is Pseudomonas aeruginosa. In words: Downregulation of pelA mRNA level in Pseudomonas aeruginosa PAO1 at 10 uM by RT-qPCR analysis. The format is functional, organism-based.
Data set [31] concerns Pseudomonas aeruginosa. The data set is described as follows: Inhibition of swimming motility of Pseudomonas aeruginosa PAO1 at 10 uM incubated overnight relative to control. Type of data set: functional.
The test system of data set [32] is Pseudomonas aeruginosa. In words: Inhibition of beta-galactosidase in Pseudomonas aeruginosa PAO1 harboring mini-ctx-lasB-lacZ incubated for 6 hrs by ONPG test. Conditions: dose <= 10.0 µM.
Data set [33] can be described thus: Inhibition of quorum sensing system in Pseudomonas aeruginosa PAO1 harboring mini-ctx-lasB-lacZ at 10 uM measured after 16 hrs by ONPG test relative to control.
Data set [34] relates to Pseudomonas aeruginosa. In words: Antivirulence activity against Pseudomonas aeruginosa PAO1 assessed as reduction in hemolysin level at 10 uM preincubated for 24 hrs followed by addition of erythrocytes measured after 30 mins by absorbance based analysis relative to control. Type of data set: functional. More on the design: scale not given: the % may be the effect or the level left.

Data set [35] deals with Pseudomonas aeruginosa. In words: Downregulation of rhlR mRNA level in Pseudomonas aeruginosa PAO1 at 10 uM by RT-qPCR analysis. The format is functional, organism-based.
The test system of data set [36] is Pseudomonas aeruginosa. In words: Inhibition of twitching motility of Pseudomonas aeruginosa PAO1 at 10 uM incubated overnight by crystal voilet staining based analysis. The format is functional, organism-based.
The nature of data set [37]: Toxicity in Caenorhabditis elegans infected with hyper-biofilm phenotype Pseudomonas aeruginosa PAO1 harboring wspF mutant assessed as nematode death at 10 uM incubated for 48 hrs in presence of tetracycline.
The subject of data set [38] is Pseudomonas aeruginosa. In words: Inhibition of swarming motility of Pseudomonas aeruginosa PAO1 at 10 uM incubated overnight. Type of data set: functional, organism-based.
Data set [39] relates to Pseudomonas aeruginosa. The data set is described as follows: Antivirulence activity against Pseudomonas aeruginosa PAO1 assessed as reduction in pyocyanin level at 10 uM incubated for 24 hrs by absorbance based assay relative to control. Type of data set: functional. Also noted: scale not given: the % may be the effect or the level left.
Data set [40] concerns Pseudomonas aeruginosa. The data set is described as follows: Downregulation of lasB mRNA level in Pseudomonas aeruginosa PAO1 at 10 uM by RT-qPCR analysis. Type of data set: functional, organism-based.
Data set [41] has as its system Pseudomonas aeruginosa. The data set is described as follows: Inhibition of beta-galactosidase in Pseudomonas aeruginosa PAO1 harboring mini-ctx-lacZ at 10 uM incubated for 6 hrs by ONPG test relative to control.
Data set [42] deals with Pseudomonas aeruginosa. In words: Antivirulence activity against Pseudomonas aeruginosa PAO1 assessed as reduction in pyocyanin level incubated for 24 hrs by absorbance based assay. Conditions: dose <= 10.0 µM. Type of data set: functional, organism-based.
The test system of data set [43] is Pseudomonas aeruginosa. The data set is described as follows: Antivirulence activity against Pseudomonas aeruginosa PAO1 assessed as reduction in elastase level incubated for 24 hrs by elastin-Congo red staining based analysis. Type of data set: functional, organism-based. Conditions: dose <= 10.0 µM.
Data set [44] in a line: Hemolytic activity in rabbit erythrocytes assessed as damage in cell membrane integrity at 100 uM incubated for 4 hrs by absorbance based assay. The format is toxicity, Oryctolagus cuniculus. Particulars: erythrocyte.
The subject of data set [45] is DNA. In words: Binding affinity to pBR322 DNA (unknown origin) assessed as DNA embedding toxicity at 50 uM preincubated for 10 mins followed by Topo I addition measured after 1 hr by TO dye based PAGE analysis. Type of data set: nucleic-acid assay. Particulars: time 70.0 min.
Data set [46] is described as follows: Toxicity in Caenorhabditis elegans infected with Pseudomonas aeruginosa PAO1 assessed as nematode survival at 2 ug incubated for 48 hrs. Particulars: in vivo, at 2 µg.

Activity calls are given as the source filed them. The calls are words filed in the database; no cut-off is given here.

As to `C[n+]1c(/C=C/c2c[nH]c3ccccc23)ccc2ccccc21.[I-]`, the inhibition (commonly how much of the control response was suppressed) in [1] is “Dose-dependent-effect”; in data set [2], 10%; in data set [5], “Dose-dependent-effect”; in data set [13], 30%; in data set [14] it was “Dose-dependent-effect”; in [19], 30%. The inhibition entry in [20] is “Dose-dependent-effect”; in data set [23], “Dose-dependent-effect”; in data set [32] it was “Dose-dependent-effect”; in data set [33] it was 44.5%; in data set [36], “Active; Exhibited Only A Modest Impact”; in [38], “Active; Inhibitory Effect Was Comparable To Qs Deficient Pao1 Double Mutant Lasi/Rhli”. The molecule further registered an inhibition in data set [41] of 20.4%. Also, in [3], the inhibition at 1.25 µM was around 21%. For the same molecule, the result in data set [4], in [7], in data set [9], in data set [17], in data set [21] and in [25] was Active. Besides, the result in data set [27], in data set [29], in [30], in data set [35] and in data set [40] was Active. Also, in [6], the Survival was 95%. For the same molecule, in data set [8], the MIC – broadly, the lowest concentration found to suppress growth – was above 128 µM. Further, the Activity entry in [10] is “Non-toxic”; in [11], “Dose-dependent-effect”; in data set [15], “Not toxic”; in data set [16] it was “Non-toxic”; in [18] it was 59.02%; in data set [22], “Non-toxic”. The Activity entry in [24] was “Active; Exhibited Relatively Modest Activity”; in data set [26] it was ~ 50%; in data set [28] it was “Toxic”; in data set [34] it was 62.38%; in data set [37] it was “Non-toxic”; in data set [39], around 40%. Moreover, the Activity entry in data set [42] was “Dose-dependent-effect”; in data set [43], “Dose-dependent-effect”; in [44], “Non-toxic”; in data set [45] it was “Not toxic”. Moreover, the inhibition at 10 µM in data set [12] is around 40%; in data set [31], 29.2%. In data set [20] (PAO1, 24 h), inhibition was half-maximal at 14.9 µM (IC50).

As to `CN(C)[C@@H]1C(O)=C(C(N)=O)C(=O)[C@@]2(O)C(O)=C3C(=O)c4c(O)cccc4[C@@](C)(O)[C@H]3C[C@@H]12` [TETRACYCLINE], the minimum inhibitory concentration (MIC) in [8] is above 128 µM. Besides, in data set [46], the Survival is on record as ~ 10%.

The record behind these values is ChEMBL document CHEMBL6078637, “Cyclic Diguanylate G-Quadruplex Inducer-Quorum Sensing Inhibitor Hybrids as Bifunctional Anti-biofilm and Anti-virulence Agents Against Pseudomonas aeruginosa” (J Med Chem, 2024).
